These results are taken from US9605241B2, “Induction and stabilization of enzymatic activity in microorganisms” (Georgia State University Research Foundation, Inc., priority 2006, dated 2017).

Experiment [1] has as its system asparaginase I. Kind of experiment: Asparaginase I production on supplemented medium. Format: cell-based. As to conditions: asparagine and glutamine added 3.8 mM. The procedure:
The induction of asparaginase I production in various nitrile hydratase producing microorganisms was evaluated. All strains were grown on YEMEA medium containing 7.5 g/L of urea and 10 ppm cobalt (provided as cobalt chloride) supplemented with asparagine (ASN), glutamine (GLN), or both asparagine and glutamine. The asparagine and glutamine were added 3.8 mM. As a comparative, enzyme production was also evaluated with supplementation was with acrylonitrile (AN), acrylamide (AMD) or acrylonitrile and acrylamide. Growth temperature was in the range of 26° C. to 30° C.

Another experiment deals with nitrile hydratase. As to the kind of experiment: Nitrile hydratase induction by inducers (Example 1). Format: cell-based, Rhodococcus sp., strain DAP 96253. As to conditions: Table 1 comparison. The procedure: The induction of nitrile hydratase activity and amidase activity in Rhodococcus sp., strain DAP 96253, was evaluated using multiple types of inducers (1000 ppm). Three different samples were cultured in YEMEA medium containing 10 ppm cobalt and 7.5 g/L urea and supplemented with acrylonitrile, asparagine, or glutamine. The specific nitrile hydratase activity and the specific amidase activity in each sample was evaluated, and the results are provided below in Table 1, with activities provided in units/mg cdw (cell dry weight). One unit of nitrile hydratase activity relates to the ability to convert 1 Arnol of acrylonitrile to its corresponding amide per minute, per milligram of cells (dry weight) at a of pH 7.0 and a temperature of 30° C. One unit of amidase activity relates to the ability to convert […] of acrylamide to its corresponding acid per minute, per milligram of cells (dry weight) pH of 7.0 and a temperature of 30° C.

The subject of experiment [2] is asparaginase I. Kind of experiment: Effect of inducer and media composition on asparaginase I. The experiment is classed as cell-based. As to conditions: Rhodococcus sp. DAP 96253; inducer 1000 ppm. On the procedure: Testing was performed to evaluate the effect on asparaginase I activity based upon the inducer used. In particular, testing was performed using asparagine, glutamine, succinonitrile, and isovaleronitrile as inducers (all added at 1000 ppm each).

The structures appear in SMILES notation.

With `C=CC#N` [Acrylonitrile, acrylonitrile], the “Asparaginase I Level Based on Growth Medium Supplementation” value in the experiment with asparaginase I [1] (Pseudomonas chloroaphis ATCC 13985, 26 °C) is listed as 2 Units/mg cdw; in the experiment on asparaginase I [1] (Rhodococcus rhodochrous DAP 96622 ATCC 55898, 26 °C), 8.2 Units/mg cdw; in the experiment with asparaginase I [1] (Rhodococcus sp. DAP 96253 ATCC 55899, 30 °C), 7.8 Units/mg cdw.

As for `NC(=O)C[C@H](N)C(=O)O` [Asparagine, asparagine], the “ability to induce nitrile hydratase activity compared with acrylonitrile” value in the experiment on nitrile hydratase is “exceeds the ability of acrylonitrile to induce such activity”.

`NC(=O)CC[C@H](N)C(=O)O` [Glutamine, glutamine]: the “Asparaginase I Level Based on Growth Medium Supplementation” value in the experiment on asparaginase I [1] (Pseudomonas chloroaphis ATCC 43051, 30 °C) is listed as “No”. In addition, the “ability to induce asparaginase I activity (in words)” value in the experiment with asparaginase I [2] is listed as “showed an ability to induce asparaginase I activity”. The “ability to induce nitrile hydratase activity compared with acrylonitrile” value with nitrile hydratase is “exceeds the ability of acrylonitrile to induce such activity”.

As to `N#CCCC#N` [Succinonitrile, succinonitrile], the “ability to induce asparaginase I activity (in words)” value in the experiment with asparaginase I [2] was “showed an ability to induce asparaginase I activity”.
